Consider ten compounds from patent US5635495A, “Pyrimidine bisphosphonate esters and (alkoxymethylphosphinyl)alkyl phosphonic acids as anti-inflammatories” (The Upjohn Company, priority 1995, dated 1997).

The subject of test [1] is mBSA-induced DTH granuloma (DTH GRA) lesion. The experiment in a line: Delayed Type Hypersensitivity Granuloma Assay (DTH GRA) model for inflammation. In kind it is in vivo, mouse. Particulars: for % Inhibition Dry Weight: granuloma dry weight; for % Inhibition Dry Weight / % Inhibition Wet Weight: excised after nine days; for % Inhibition Wet Weight: granuloma wet weight. An excerpt: Compounds of Formula 3 and a compound of Formula 2 have been tested in a Delayed Type Hypersensitivity Granuloma Assay (DTH GRA) model for inflammation. This assay is described by Dunn, C. J. et al., "Development of a delayed-type hypersensitivity granuloma model in the mouse for the study of chronic immune-mediated inflammatory disease," Agents and Actions, 27, 3/4 (1989) and "Murine Delayed-Type Hypersensitivity Granuloma," Int. J. Immunopharmc., 12, 8, 899-904 (1990).
Briefly, mBSA-sensitized mice have a DTH granuloma (DTH GRA) lesion induced by subcutaneously implanting a mBSA-soaked filter which is excised after nine days. Compounds are administered to the mice to determine their effect on the lesions. The results are recorded as percent inhibition. […] Inhibition of 10 to 20% is considered to indicate anti-granuloma activity. Greater than 30% inhibition is good activity.
The compound of Formula 2 tested was 1-((ethoxy-methylphosphinyl))-4-(3-methyl-6-phenyl-4(3H)-pyrimidinone-2-yl)-butane phosphonic acid diethyl ester, Example 16 and the DTH GRA data obtained for this compound was 44.4%.

The next test has as its system calcium channel. The experiment in a line: in vitro model which identifies calcium channel blocking activity (KCl-induced calcium influx, INDO-1, human dermal fibroblasts). Particulars: 40 mM KCl, human dermal fibroblasts CRL 1445. In kind it is cell-based. On the procedure:
These compounds were also tested in an in vitro model which identifies calcium channel blocking activity. In this test, adherent human dermal fibroblasts (CRL 1445, ATCC, Bethesda, Md.) were allowed to attach to glass cover slips placed in 6 well culture plates. Cultures were maintained in DMEM supplemented with antibiotics and 10% fetal bovine serum (FBS) until confluent.
The fibroblasts were washed once with Dulbecco's phosphate buffered saline to remove the culture medium and FBS. The calcium probe, INDO-1 AM ([…]) in RPMI 1640 without phenol red and supplemented with 10 mM hepes and 2 mM glutamine was added to the cells for 1 hour at 37° C. The cells were washed twice with RPMI1640 and remained in this medium until calcium measurements were obtained with the Meridian ACAS digital image microscope.
The cover slip with the attached fibroblasts was placed in a chamber with 1 ml of RPMI on the microscope stage, and maintained at 37° C. The cells were exposed to a laser beam set at 310 nm and fluorescent emission was measured at 485 nm and 405 nm. Baseline resting calcium levels of the fibroblasts were measured for 30 seconds after which 40 mM KCl was added to the medium in the holder. Data was collected at 40 second intervals for a total of 300 to 400 seconds. Maximal calcium influx is usually reached within 40 seconds after the addition of KCl, and begins to slowly decrease to ~50% of the maximal level. The intracellular calcium concentrations remain elevated for at least 400 seconds.
In order to measure the inhibitory effect of the test compounds on changes in intracellular calcium, the compound was added to the cells maintained in RPMI medium for a minimum of 20 minutes before the fibroblast membranes were depolarized with KCl as outlined above. The mean increase in intracellular calcium was then compared to control fibroblasts which had been pretreated for similar lengths of time with DMSO and exposed to KCl. A calcium standard curve was obtained on the day of the experiments in order to generate absolute intracellular calcium concentrations if needed.
Two known calcium channel blockers, D600 and nifedipine were also tested to compare the relative efficacies of the "standard" compounds with the novel diphosphonates. For instance, D600 (available from the Sigma Co., St. Louis, Mo.) inhibited calcium influx into a cell by 83 to 100% at 10^-5 molar concentration. The Control is a sub-structure of Example 9 (k) not having the bisphosphonate teralkyl ester portion.

In the case of `Cc1cc(Oc2ccc(Br)cc2Br)nc(NCC(P2(=O)OCC(C)(C)CO2)P2(=O)OCC(C)(C)CO2)n1` [Ex. 19 (d), (2-((4-(2-,4-dibromophenoxy)-6-methyl-2-pyrimidinyl)amino)ethylidene)bis(2,2'(5,5-dimethyl-2,2'-dioxide-1,3,2-dioxaphosphorphinane))], in test [1] (10 mg/kg PO), the “% Inhibition Dry Weight” value is 25.0% and the “% Inhibition Wet Weight” value came out at 12.1%.

For the compound `CCOP(C)(=O)C(CCc1nc(-c2ccccc2)cc(=O)n1C)P(=O)(OCC)OCC` (stereo not drawn) [Example 16, 1-(Ethoxymethylphosphinyl)-3-(3-methyl-6-phenyl14(3H)-pyrimidinone-2-yl)-propane phosphonic acid diethyl ester], the “DTH GRA percent inhibition” value in test [1] (dose, route and wet/dry weight not given) was 44.4%.

With `CCOP(=O)(OCC)C(CNc1nc(C)cc(Oc2ccc(Cl)cc2Cl)n1)P(=O)(OCC)OCC` [(f), (2-((4-2,4-dichlorophenoxy-6-methyl-2-pyrimidinyl)amino)ethylidene)bisphosphonic acid tetraethyl ester], in test [1] (10 mg/kg PO), the “% Inhibition Dry Weight” value turned out to be 39.7% and the “% Inhibition Wet Weight” value is 45.9%.

Take `Cc1cc(Oc2ccc(F)cc2F)nc(NCC(P2(=O)OCC(C)(C)CO2)P2(=O)OCC(C)(C)CO2)n1` [Ex. 18 (b), (2-((4-(2,4-difluorophenoxy)-6-methyl-2-pyrimidinyl)amino)ethylidene)bis(2,2'-(5,5-dimethyl-2,2'-dioxide-1,3,2-dioxaphosphorphinane))]: in test [1] (10 mg/kg PO), the “% Inhibition Dry Weight” value turned out to be 58.3% and the “% Inhibition Wet Weight” value came out at 70.6%.

Take `Cc1cc(Oc2c(F)cccc2[N+](=O)[O-])nc(NCC(P2(=O)OCC(C)(C)CO2)P2(=O)OCC(C)(C)CO2)n1` [Ex. 17 (a), (2-((4-(2-fluoro-6-nitrophenoxy)-6-methyl-2-pyrimidinyl)amino)ethylidene)bis(2,2'-(5,5-dimethyl-2,2'-dioxide-1,3,2-dioxaphosphorphinane))]: in test [1] (10 mg/kg PO), the “% Inhibition Dry Weight” value was 39.0% and the “% Inhibition Wet Weight” value is 47.9%.

For the compound `COc1cc(C)nc(NCC(P2(=O)OCC(C)(C)CO2)P2(=O)OCC(C)(C)CO2)n1` [Ex. 26 (l), (2((4-(methyl)-6-methoxy-2-pyrimidinyl)amino)ethylidene)bis(2,2'-(5,5-dimethyl-2,2'-dioxide-1,3,2-dioxaphosphorphine))], in test [1] (10 mg/kg PO), the “% Inhibition Dry Weight” value is given as 44.8% and the “% Inhibition Wet Weight” value stood at 41.9%.

Consider `Cc1cc(Oc2ccc(Cl)cc2Cl)nc(N)n1` [Control, reference compound], for which the “% Inhibition Mean SD (calcium channel activity)” value in the test on calcium channel (10^-5 M) came to 12%.

Consider `Cc1cc(Oc2ccc(C#N)cc2)nc(NCC(P2(=O)OCC(C)(C)CO2)P2(=O)OCC(C)(C)CO2)n1` [Ex. 20 (e), (2-((4-(4-cyanophenoxy)-6-methyl-2-pyrimidinyl)amino)ethylidene)bis(2,2'-(5,5-dimethyl-2,2'-dioxide-1,3,2-dioxaphosphorphinane))], for which, in test [1] (10 mg/kg PO), the “% Inhibition Dry Weight” value worked out at 41.8% and the “% Inhibition Wet Weight” value worked out at 27.4%.

For the compound `Cc1cc(N2CCOCC2)nc(NCC(P2(=O)OCC(C)(C)CO2)P2(=O)OCC(C)(C)CO2)n1` [Ex. 21 (c), (2-((4-(4-morpholinyl)-6-methyl-2-pyrimidinyl)amino)ethylidene)bis(2,2'-(5,5-dimethyl-2,2'-dioxide-1,3,2-dioxaphosphorphinane))], in test [1] (10 mg/kg PO), the “% Inhibition Dry Weight” value turned out to be 62.5% and the “% Inhibition Wet Weight” value is 68.6%.

As for `CCOP(=O)(OCC)C(CNc1nc(C)cc(Oc2ccc(Cl)cc2Cl)n1)P(=O)(OCC)OCC` [Ex. 25 (k), (2-((4-(2,4-dichlorophenoxy)-6-methyl-2-pyrimidinyl)amino)ethylidene)bisphosphonic acid, tetraethyl ester], in test [1] (100 mg/kg, administered sc), the “% Inhibition Dry Weight” value is given as 39.6%. For the same compound, the “% Inhibition Wet Weight” value in test [1] (100 mg/kg, administered sc) was 40.5%. Besides, the “% Inhibition Mean SD (calcium channel activity)” value in the test on calcium channel (10^-5 M) was determined as 92 ± 5%; in the test with calcium channel (10^-6 M) it was 75 ± 9%; with calcium channel (10^-7 M), 35 ± 19%.
